These results are taken from patent publication US7297551B2, “Recombinant proteins and peptides for endotoxin biosensors, endotoxin removal, and anti-microbial and anti-endotoxin therapeutics” (priority 1998, dated 2007).

The target of one assay is BPI pep85-99 (15 mer). The following applies: de Haas et al., 1998; ligand cell empty; read-out: Equilibrium constant; cited from earlier work.
The target in the next assay is NH-LBP (aa 1-197). The conditions noted are these: Han et al., 1994; ligand cell empty; read-out: Equilibrium constant; cited from earlier work.
Assay [1] deals with T1, rFC (full-length recombinant C. rotundicauda Factor C, CrFC21, from P. pastoris) (Carcinoscorpius rotundicauda, UniProt Q26422).
T1 sequence (Q26422 1-1019): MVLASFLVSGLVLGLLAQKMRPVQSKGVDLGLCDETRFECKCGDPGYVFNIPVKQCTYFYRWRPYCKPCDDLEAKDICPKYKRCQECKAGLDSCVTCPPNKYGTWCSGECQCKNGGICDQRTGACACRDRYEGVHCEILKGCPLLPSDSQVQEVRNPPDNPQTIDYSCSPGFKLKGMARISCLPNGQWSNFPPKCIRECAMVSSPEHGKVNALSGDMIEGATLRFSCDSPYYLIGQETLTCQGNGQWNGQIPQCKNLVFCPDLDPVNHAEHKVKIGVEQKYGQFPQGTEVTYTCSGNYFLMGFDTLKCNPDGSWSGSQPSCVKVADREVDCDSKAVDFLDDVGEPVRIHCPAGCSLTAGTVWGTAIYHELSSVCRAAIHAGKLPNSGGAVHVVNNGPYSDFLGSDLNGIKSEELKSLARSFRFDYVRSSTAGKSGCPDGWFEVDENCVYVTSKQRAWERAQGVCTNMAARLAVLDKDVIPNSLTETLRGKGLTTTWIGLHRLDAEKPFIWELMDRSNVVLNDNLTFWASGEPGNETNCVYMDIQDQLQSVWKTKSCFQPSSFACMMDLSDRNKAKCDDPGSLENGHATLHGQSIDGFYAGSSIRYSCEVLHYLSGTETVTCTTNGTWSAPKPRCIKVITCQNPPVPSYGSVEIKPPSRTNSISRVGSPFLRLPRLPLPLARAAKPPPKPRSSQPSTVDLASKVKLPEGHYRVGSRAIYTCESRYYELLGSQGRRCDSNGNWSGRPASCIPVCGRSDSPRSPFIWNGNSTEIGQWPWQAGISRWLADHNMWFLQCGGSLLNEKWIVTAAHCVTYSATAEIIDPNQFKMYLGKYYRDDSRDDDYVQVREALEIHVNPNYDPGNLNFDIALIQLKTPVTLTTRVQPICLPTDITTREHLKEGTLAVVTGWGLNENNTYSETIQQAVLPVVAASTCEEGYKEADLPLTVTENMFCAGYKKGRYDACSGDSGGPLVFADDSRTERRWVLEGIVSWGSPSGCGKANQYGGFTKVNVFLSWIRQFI
The assay can be described thus: BIACORE X binding to immobilized lipid A. The conditions noted are these: partially-pure rFC to lipid A 10:1 on a mass basis. The procedure:
(§1) The binding interactions between rFC and immobilized lipid A were monitored using the BIACORE X™ biosensor (Pharmacia Biotech). The BIACORE X™ sensor chip features a flat hydrophobic surface that allows the immobilization of ligand molecules. Thirty microliters of lipid A at 100 μg/ml were immobilized on each sensor chip to form a ligand surface. Biomax™-50 enriched samples of rFC, rFCEE and rFCSN, each at 1 mg/ml were injected at 10 μl/min for 3 min over the ligand surface. After each injection of the recombinant protein samples, the lipid A ligand surface was regenerated using 0.1 M NaOH. The ligand-binding was measured in relative response units (RU) for each sample, and calculated from the difference in RU at the baseline, viz., before injection of sample, and final experimental reading taken after sample injection and a 2-min wash. The percentage binding was thus determined.

Assay [2] has as its target T2, rFCEE (truncated C. rotundicauda Factor C, CrFC21EE, amino acids 1-766, from P. pastoris) (Carcinoscorpius rotundicauda, UniProt Q26422).
T2 construct: Pichia pastoris, Biomax-50 enriched
T2 sequence (Q26422 1-766): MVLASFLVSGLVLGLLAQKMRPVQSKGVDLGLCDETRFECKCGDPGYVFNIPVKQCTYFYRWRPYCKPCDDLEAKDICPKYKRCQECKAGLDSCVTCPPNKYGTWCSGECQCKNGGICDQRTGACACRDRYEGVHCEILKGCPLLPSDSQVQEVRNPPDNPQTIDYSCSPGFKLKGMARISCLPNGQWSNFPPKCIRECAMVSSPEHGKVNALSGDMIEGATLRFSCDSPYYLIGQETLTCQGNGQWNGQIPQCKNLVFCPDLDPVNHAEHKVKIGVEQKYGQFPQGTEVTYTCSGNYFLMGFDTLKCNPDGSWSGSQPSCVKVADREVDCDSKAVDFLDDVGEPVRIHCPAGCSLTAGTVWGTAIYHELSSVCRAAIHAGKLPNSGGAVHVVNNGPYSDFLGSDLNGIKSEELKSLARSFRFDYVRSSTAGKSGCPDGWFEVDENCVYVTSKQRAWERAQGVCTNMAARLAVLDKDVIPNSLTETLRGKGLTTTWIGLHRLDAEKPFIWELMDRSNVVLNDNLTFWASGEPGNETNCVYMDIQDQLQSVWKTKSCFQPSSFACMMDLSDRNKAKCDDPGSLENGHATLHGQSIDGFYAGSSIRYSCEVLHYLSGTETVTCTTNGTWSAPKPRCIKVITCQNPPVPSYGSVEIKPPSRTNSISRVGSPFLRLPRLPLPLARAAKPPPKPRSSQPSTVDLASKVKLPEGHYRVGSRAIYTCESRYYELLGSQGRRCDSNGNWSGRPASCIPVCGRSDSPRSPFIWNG
Nature of the assay: BIACORE X binding to immobilized lipid A. The following applies: Biomax-50 enriched, normalized with rFCSN. The procedure: as §1

For lipid A, the figures for the Kd at BPI pep85-99 (15 mer) and at NH-LBP (aa 1-197) were 1760 nM and 51 nM, respectively. In addition, the “net response, lipid A bound” value in assay [1] is “approximately 30%”; in assay [2], 15%.
